The source of these data is patent US20040259912A1, “Benzine derivatives, process for preparing the same and use thereof” (priority 2001, published 2004).

The test system of test [1] is RVR1/CHO and HVR1/CHO strains (CHO-K1 cells expressing rat VR1 / human VR1). As to conditions: in the presence of 1 μM of the compound; 3 hours reaction, then 20 hours culture with Alama Blue; strain (RVR1/CHO or HVR1/CHO) not specified.
Protocol: RVR1/CHO and HVR1/CHO strains were inoculated on 96-well microplates (Corning Coaster) at a concentration of 4×10^4 cells/well, respectively and were cultured for 20 hours. After the culture was removed by suction, 180 μl of Ham's F12 medium (GIBCO BRL) containing 10% fetal calf serum (GIBCO BRL) was added to each well. Next, 20 μl of the assay buffer (Ham's F12 medium (GIBCO BRL), 0.5% BSA and 20 mM HEPES (Dojindo Molecular Technologies, Inc.), pH 7.5) containing a test compound at a final concentration of 1 μM was added to each well and the reaction was carried out in a carbon dioxide incubator for 3 hours. Subsequently, and Alama Blue (Wako Pure Chemical Industries, Ltd.) at a concentration of 25 μl was added to each well, and again cultured for 20 hours. Next, fluorescence was measured at excitation wavelength of 530 nm and fluorescence wavelength of 590 nm using multilabel counter (Wallac-Berthold, Japan), and survival rate of cell was determined.
According to the above-mentioned method, the agonist activity of test compounds was determined.
For test [2], the system named is ICR male mice. As to conditions: 0.01 mL dropped to the eye; capsaicin (0.3 μg) challenge at 1 hour; stimulating or desensitizing activity not specified.
Protocol: Eight of 4-5 weeks old ICR male mice (Japan SLC) were used in a group. 0.01 mL of the drug was added dropwise to the eye, and the time when the mouse continued to close the eye was measured. The stimulation of the drug was evaluated as positive when the time is more than 10 seconds, and as negative when the time is less than 10 seconds. At 1 hour after the initial treatment, a solution of capsaicin (0.3 μg) was added dropwise to the eye to evaluate whether the stimulation is or not, and examined the desensitizing activity of the compound. The stimulating and desensitizing activity of the drug were calculated as a value of ED50. The drug was dissolved in a mixture of 10% ethanol, 20% Tween and 80-70% physiological salt solution.
Test [3] concerns ICR male mice. As to conditions: subcutaneous; 55° C. water bath; time measured after 1, 3 and 6 hours.
Protocol: Four to five weeks old ICR male mice (Japan SLC) were used in this test. The mouse was put into a retainer, the tail end was dipped into 55° C. water bath, and the time until the tail end rose to the surface was measured. The time was previously measured before the administration of the drug, and the mouse having the time of less than 2 seconds were selected and used in the test. Cut-off time was set to 10 seconds. The drug was administered subcutaneously, and the time was measured after 1, 3 and 6 hours to evaluate the effects of the drug. The drug was dissolved in a mixture of 10% ethanol, 20% Tween and 80-70% physiological salt solution.
The test system of test [4] is ICR male mice. In words: Measurement of mouse bladder volume. The test is classed as in vivo. As to conditions: for Bladder volume / Bladder volume (mL): sc, 3 hours after administration, urethane anesthesia, Mean ± S.E.; for bladder volume of the mouse (result in words): subcutaneous, mouse anesthetized with urethane. On the procedure: Measurement of Mouse Bladder Volume
Five weeks old ICR male mice were used in this test. At 3 hours after the subcutaneous administration of the drug, the abdomen of mouse was cut open under urethane anesthesia (30 mg/mouse) to expose the bladder. Physiological salt solution was infused into the bladder at the rate of 0.05 mL/minutes to check excretion reflection. All of the urine was drained off, and the physiological salt solution was infused again, and then, the bladder volume of mouse was calculated by measuring the time to urination.

Consider `CCC(=O)c1cc(NC(=O)Nc2ccc(OC)c(OC)c2)ccc1OC(c1ccccc1)c1ccccc1` [Example 2, N-[(4-Benzhydryloxy)-3-propionylphenyl]-N′-(3,4-dimethoxyphenyl)urea], for which the “survival rate of the cells” value in test [1] was determined as 0%. Besides, in test [2], the ED50 amounted to 2.2 µg. Also, the Minimum effective dose in test [3] turned out to be 1 mg/kg.

As for `COC(=O)c1cc(NC(=O)Nc2ccccc2)ccc1OC(c1ccccc1)c1ccccc1` [Example 22, Methyl 5-(anilinocarbonylamino)-2-benzhydryloxybenzoate], in test [4] (3 mg/kg), the “Bladder volume” value came to 0.17 ± 0.03 mL. In addition, the “Bladder volume (mL)” value is listed as 0.28 ± 0.05* mL in test [4] (10 mg/kg, *p ≦ 0.05 vs. vehicle) and 0.31 ± 0.06** mL in test [4] (100 mg/kg, **p ≦ 0.01 vs. vehicle). In addition, the “bladder volume of the mouse (result in words)” value in test [4] was “increased significantly”.

As to `C=C(C)[C@]12C[C@@H](C)[C@@]34O[C@](Cc5ccccc5)(O[C@@H]1[C@@H]3C=C(COC(=O)Cc1ccc(O)c(OC)c1)C[C@]1(O)C(=O)C(C)=C[C@@H]41)O2` [Resiniferatoxin, resiniferatoxin, reference compound], in test [4] (0.03 mg/kg), the “Bladder volume” value is reported as 0.24 ± 0.04 mL. The “Bladder volume (mL)” value in test [4] (0.1 mg/kg, *p ≦ 0.05 vs. vehicle) is listed as 0.39 ± 0.04* mL. Besides, the “bladder volume of the mouse (result in words)” value in test [4] is reported as “increased significantly”.
